Where two headings read alike, the source gives them in different places.
Tested on: patients with advanced TP53 wild-type (WT) leukemias

## COc1ncc(-c2nc3c(n2C(C)C)[C@H](c2ccc(Cl)cc2)N(c2cc(Cl)cn(C)c2=O)C3=O)c(OC)n1 [HDM201, (S)-5-(5-Chloro-1-methyl-2-oxo-1,2-dihydro-pyridin-3-yl)-6-(4-chloro-phenyl)-2-(2,4-dimethoxy-pyrimidin-5-yl)-1-isopropyl-5,6-dihydro-1H-pyrrolo[3,4-d]imidazol-4-one]
Regimen 1A N = 16, Grade 3/4
  AE: Iron Overload: 0 n (%)
  AE: Leukopenia: 2 (12.5) n (%)
  AE: Lip Oedema: 0 n (%)
  AE: Lipase Increased: 2 (12.5) n (%)
  AE: Macular Oedema: 0 n (%)
  AE: Malaise: 0 n (%)
  AE: Mouth Haemorrhage: 0 n (%)
  AE: Nausea: 0 n (%)
  AE: Neutropenia/Neutrophil Count Decreased: 6 (37.5) n (%)
  AE: Oedema: 0 n (%)
  AE: Oral Disorder: 0 n (%)
  AE: Pain In Extremity: 0 n (%)
  AE: Pancytopenia: 0 n (%)
  AE: Pneumonia: 0 n (%)
  AE: Pollakiuria: 0 n (%)
  AE: Pyrexia: 0 n (%)
  AE: Rash: 0 n (%)
  AE: Rash Erythematous: 0 n (%)
  AE: Rash Papular: 0 n (%)
  AE: Rectal Haemorrhage: 0 n (%)
  AE: Renal Failure: 0 n (%)
  AE: Skin Exfoliation: 0 n (%)
  AE: Stomatitis: 1 (6.3) n (%)
  AE: Subarachnoid Haemorrhage: 1 (6.3) n (%)
  AE: Thrombocytopenia/Platelet Count Decreased: 8 (50.0) n (%)
  AE: Total: 12 (75.0) n (%)
  AE: Tumour Lysis Syndrome: 7 (43.8) n (%)
  AE: Vomiting: 0 n (%)
  AE: Weight Decreased: 0 n (%)
  AE: White Blood Cell Count Decreased: 0 n (%)
Regimen 1B N = 6, All Grades
  AE: Abdominal Discomfort: 0 n (%)
  AE: Abdominal Pain: 0 n (%)
  AE: Abdominal Pain Upper: 0 n (%)
  AE: Acute Kidney Injury: 1 (16.7) n (%)
  AE: Amylase Increased: 0 n (%)
  AE: Anaemia: 2 (33.3) n (%)
  AE: Arthralgia: 0 n (%)
  AE: Asthenia: 1 (16.7) n (%)
  AE: Atrial Fibrillation: 0 n (%)
  AE: Atypical Pneumonia: 0 n (%)
  AE: Balanitis Candida: 0 n (%)
  AE: Blood Alkaline Phosphatase Increased: 0 n (%)
  AE: Blood Bilirubin Increased: 1 (16.7) n (%)
  AE: Blood Creatinine Increased: 0 n (%)
  AE: Blood Phosphorus Increased: 1 (16.7) n (%)
  AE: Blood Uric Acid Increased: 0 n (%)
  AE: Bone Marrow Failure: 0 n (%)
  AE: C-Reactive Protein Increased: 0 n (%)
  AE: Cardiac Failure: 0 n (%)
  AE: Cellulitis: 1 (16.7) n (%)
  AE: Chronic Graft Versus Host Disease: 0 n (%)
  AE: Conjunctival Haemorrhage: 0 n (%)
  AE: Constipation: 1 (16.7) n (%)
  AE: Cough: 0 n (%)
  AE: Cystitis Viral: 0 n (%)
  AE: Cytomegalovirus Infection: 0 n (%)
  AE: Decreased Appetite: 1 (16.7) n (%)
  AE: Diarrhoea: 0 n (%)
  AE: Dyspepsia: 0 n (%)
  AE: Dyspnoea: 0 n (%)
  AE: Epistaxis: 0 n (%)
  AE: Fatigue: 0 n (%)
  AE: Febrile Neutropenia: 2 (33.3) n (%)
  AE: Gamma-Glutamyltransferase Increased: 0 n (%)
  AE: General Physical Health Deterioration: 0 n (%)
  AE: Gingival Bleeding: 0 n (%)
  AE: Graft Versus Host Disease: 0 n (%)
  AE: Haemoglobin Decreased: 0 n (%)
  AE: Headache: 1 (16.7) n (%)
  AE: Hyperbilirubinaemia: 1 (16.7) n (%)
  AE: Hyperglycaemia: 0 n (%)
  AE: Hyperkalaemia: 1 (16.7) n (%)
  AE: Hyperphosphataemia: 1 (16.7) n (%)
  AE: Hyperuricaemia: 2 (33.3) n (%)
  AE: Hypoalbuminaemia: 0 n (%)
  AE: Hypocalcaemia: 0 n (%)
  AE: Hypokalaemia: 1 (16.7) n (%)
  AE: Hypomagnesaemia: 0 n (%)
  AE: Hyponatraemia: 1 (16.7) n (%)
  AE: Hypophosphataemia: 0 n (%)
  AE: Hypotension: 0 n (%)
  AE: Infection: 0 n (%)
  AE: Infective Glossitis: 0 n (%)
  AE: Iron Overload: 0 n (%)
  AE: Leukopenia: 0 n (%)
  AE: Lip Oedema: 0 n (%)
  AE: Lipase Increased: 0 n (%)
  AE: Macular Oedema: 1 (16.7) n (%)
  AE: Malaise: 0 n (%)
  AE: Mouth Haemorrhage: 0 n (%)
  AE: Nausea: 4 (66.7) n (%)
  AE: Neutropenia/Neutrophil Count Decreased: 1 (16.7) n (%)
  AE: Oedema: 0 n (%)
  AE: Oedema Peripheral: 1 (16.7) n (%)
  AE: Oral Disorder: 0 n (%)
  AE: Pain In Extremity: 0 n (%)
  AE: Pancytopenia: 1 (16.7) n (%)
  AE: Pneumonia: 0 n (%)
  AE: Pollakiuria: 0 n (%)
  AE: Pyrexia: 0 n (%)
  AE: Rash: 0 n (%)
  AE: Rash Erythematous: 0 n (%)
  AE: Rash Papular: 0 n (%)
  AE: Rectal Haemorrhage: 1 (16.7) n (%)
  AE: Renal Failure: 0 n (%)
  AE: Skin Exfoliation: 0 n (%)
